From the NIST ThermoML archive (doi:10.1016/j.fluid.2017.06.024)
± gives the expanded uncertainty stated by the source.

Settings: Liquid; for speed of sound: Frequency=3 MHz, Pulse-echo method; for mass density: Vibrating tube method

CC(C)OC(C)C [diisopropyl ether]
speed of sound (333.15 K, 100000 kPa): 1423.5 ± 3 m/s
mass density (333.15 K, 100000 kPa): 773.8 ± 1.1 kg/m3
mass density (333.15 K, 110000 kPa): 779.4 ± 1.1 kg/m3
mass density (333.15 K, 120000 kPa): 784.8 ± 1.2 kg/m3
mass density (333.15 K, 130000 kPa): 789.9 ± 1.2 kg/m3
mass density (333.15 K, 140000 kPa): 794.7 ± 1.3 kg/m3
mass density (343.15 K, 10000 kPa): 686 ± 0.6 kg/m3
speed of sound (343.15 K, 20000 kPa): 984.53 ± 2.2 m/s
mass density (343.15 K, 20000 kPa): 700 ± 0.6 kg/m3
mass density (343.15 K, 30000 kPa): 711.8 ± 0.7 kg/m3
speed of sound (343.15 K, 40000 kPa): 1117.8 ± 2.4 m/s
mass density (343.15 K, 40000 kPa): 722.2 ± 0.8 kg/m3
mass density (343.15 K, 50000 kPa): 731.4 ± 0.8 kg/m3
speed of sound (343.15 K, 60000 kPa): 1226.4 ± 2.6 m/s
mass density (343.15 K, 60000 kPa): 739.7 ± 0.9 kg/m3
mass density (343.15 K, 70000 kPa): 747.3 ± 0.9 kg/m3
speed of sound (343.15 K, 80000 kPa): 1318.7 ± 2.8 m/s
mass density (343.15 K, 80000 kPa): 754.4 ± 1 kg/m3
mass density (343.15 K, 90000 kPa): 761 ± 1 kg/m3
speed of sound (343.15 K, 100000 kPa): 1400.8 ± 3 m/s
mass density (343.15 K, 100000 kPa): 767.2 ± 1.1 kg/m3
mass density (343.15 K, 110000 kPa): 773.2 ± 1.1 kg/m3
mass density (343.15 K, 120000 kPa): 778.6 ± 1.2 kg/m3
mass density (343.15 K, 130000 kPa): 784 ± 1.2 kg/m3
mass density (343.15 K, 140000 kPa): 788.9 ± 1.3 kg/m3
mass density (353.15 K, 10000 kPa): 676.2 ± 0.6 kg/m3
speed of sound (353.15 K, 20000 kPa): 953.14 ± 2.1 m/s
mass density (353.15 K, 20000 kPa): 691.2 ± 0.7 kg/m3
mass density (353.15 K, 30000 kPa): 703.7 ± 0.7 kg/m3
speed of sound (353.15 K, 40000 kPa): 1090.7 ± 2.4 m/s
mass density (353.15 K, 40000 kPa): 714.6 ± 0.8 kg/m3
mass density (353.15 K, 50000 kPa): 724.2 ± 0.8 kg/m3
speed of sound (353.15 K, 60000 kPa): 1200.4 ± 2.6 m/s
mass density (353.15 K, 60000 kPa): 733 ± 0.9 kg/m3
mass density (353.15 K, 70000 kPa): 740.9 ± 0.9 kg/m3
speed of sound (353.15 K, 80000 kPa): 1294.6 ± 2.8 m/s
mass density (353.15 K, 80000 kPa): 748.2 ± 1 kg/m3
mass density (353.15 K, 90000 kPa): 755.1 ± 1.1 kg/m3
speed of sound (353.15 K, 100000 kPa): 1378.4 ± 2.9 m/s
mass density (353.15 K, 100000 kPa): 761.4 ± 1.1 kg/m3
mass density (353.15 K, 110000 kPa): 767.3 ± 1.2 kg/m3
mass density (353.15 K, 120000 kPa): 773 ± 1.2 kg/m3
mass density (353.15 K, 130000 kPa): 778.4 ± 1.3 kg/m3
mass density (353.15 K, 140000 kPa): 783.5 ± 1.3 kg/m3
mass density (363.15 K, 10000 kPa): 666.1 ± 0.6 kg/m3
mass density (363.15 K, 20000 kPa): 682.3 ± 0.7 kg/m3
mass density (363.15 K, 30000 kPa): 695.6 ± 0.7 kg/m3
mass density (363.15 K, 40000 kPa): 707 ± 0.8 kg/m3
mass density (363.15 K, 50000 kPa): 717.1 ± 0.8 kg/m3
mass density (363.15 K, 60000 kPa): 726.1 ± 0.9 kg/m3
mass density (363.15 K, 70000 kPa): 734.4 ± 1 kg/m3
mass density (363.15 K, 80000 kPa): 742 ± 1 kg/m3
mass density (363.15 K, 90000 kPa): 749 ± 1.1 kg/m3
mass density (363.15 K, 100000 kPa): 755.5 ± 1.1 kg/m3
mass density (363.15 K, 110000 kPa): 761.7 ± 1.2 kg/m3
mass density (363.15 K, 120000 kPa): 767.5 ± 1.2 kg/m3
mass density (363.15 K, 130000 kPa): 773 ± 1.3 kg/m3
mass density (363.15 K, 140000 kPa): 778.3 ± 1.4 kg/m3
mass density (373.15 K, 10000 kPa): 655.9 ± 0.6 kg/m3
mass density (373.15 K, 20000 kPa): 673.3 ± 0.7 kg/m3
mass density (373.15 K, 30000 kPa): 687.4 ± 0.7 kg/m3
mass density (373.15 K, 40000 kPa): 699.4 ± 0.8 kg/m3
mass density (373.15 K, 50000 kPa): 709.9 ± 0.8 kg/m3
mass density (373.15 K, 60000 kPa): 719.3 ± 0.9 kg/m3
mass density (373.15 K, 70000 kPa): 728 ± 1 kg/m3
mass density (373.15 K, 80000 kPa): 735.7 ± 1 kg/m3
mass density (373.15 K, 90000 kPa): 743.1 ± 1.1 kg/m3
mass density (373.15 K, 100000 kPa): 749.8 ± 1.1 kg/m3
mass density (373.15 K, 110000 kPa): 756.2 ± 1.2 kg/m3
mass density (373.15 K, 120000 kPa): 762.2 ± 1.3 kg/m3
mass density (373.15 K, 130000 kPa): 767.8 ± 1.3 kg/m3
mass density (373.15 K, 140000 kPa): 773.1 ± 1.4 kg/m3
mass density (383.15 K, 10000 kPa): 645.3 ± 0.6 kg/m3
mass density (383.15 K, 20000 kPa): 664 ± 0.7 kg/m3
mass density (383.15 K, 30000 kPa): 679 ± 0.7 kg/m3
mass density (383.15 K, 40000 kPa): 691.8 ± 0.8 kg/m3
mass density (383.15 K, 50000 kPa): 702.8 ± 0.9 kg/m3
mass density (383.15 K, 60000 kPa): 712.5 ± 0.9 kg/m3
mass density (383.15 K, 70000 kPa): 721.4 ± 1 kg/m3
mass density (383.15 K, 80000 kPa): 729.5 ± 1.1 kg/m3
mass density (383.15 K, 90000 kPa): 737 ± 1.1 kg/m3
mass density (383.15 K, 100000 kPa): 743.9 ± 1.2 kg/m3
mass density (383.15 K, 110000 kPa): 750.4 ± 1.2 kg/m3
mass density (383.15 K, 120000 kPa): 756.6 ± 1.3 kg/m3
mass density (383.15 K, 130000 kPa): 762.4 ± 1.4 kg/m3
mass density (383.15 K, 140000 kPa): 767.9 ± 1.4 kg/m3
mass density (393.15 K, 10000 kPa): 634.8 ± 0.6 kg/m3
mass density (393.15 K, 20000 kPa): 654.9 ± 0.7 kg/m3
mass density (393.15 K, 30000 kPa): 670.7 ± 0.7 kg/m3
mass density (393.15 K, 40000 kPa): 684 ± 0.8 kg/m3
mass density (393.15 K, 50000 kPa): 695.4 ± 0.9 kg/m3
mass density (393.15 K, 60000 kPa): 705.6 ± 0.9 kg/m3
mass density (393.15 K, 70000 kPa): 714.8 ± 1 kg/m3
mass density (393.15 K, 80000 kPa): 722.9 ± 1.1 kg/m3
mass density (393.15 K, 90000 kPa): 730.8 ± 1.1 kg/m3
mass density (393.15 K, 100000 kPa): 738 ± 1.2 kg/m3
mass density (393.15 K, 110000 kPa): 744.6 ± 1.3 kg/m3
mass density (393.15 K, 120000 kPa): 750.9 ± 1.3 kg/m3
mass density (393.15 K, 130000 kPa): 756.8 ± 1.4 kg/m3
mass density (393.15 K, 140000 kPa): 762.3 ± 1.4 kg/m3
